Assay: THC-CBD-Metoprolol intra-colon vs oral administration in the freely moving rat model
Settings: for absorption through the colon in comparison to PO administration: lipid-based self-nano emulsifying formulation via colonic cannula vs PO, CBD 15 mg/kg, THC 20 or 10 mg/kg

SMILES	AUC after administration through the colon in comparison to PO administration (colonic cannula vs PO, metoprolol 20 or 15 mg/kg)	absorption through the colon in comparison to PO administration
COCCc1ccc(OCC(O)CNC(C)C)cc1 (stereo not drawn) [Metoprolol]	approximately 4 fold	–
C=C(C)[C@@H]1CCC(C)=C[C@H]1c1c(O)cc(CCCCC)cc1O [CBD, cannabidiol]	–	practically not absorbed through the colon
CCCCCc1cc(O)c2c(c1)OC(C)(C)[C@@H]1CCC(C)=C[C@@H]21 [THC, tetrahydrocannabinol]	–	practically not absorbed through the colon

— patent US20230398080A1, “FLOATING DRUG DELIVERY SYSTEMS COMPRISING CANNABINOIDS” (YISSUM RESEARCH DEVELOPMENT COMP ANY OF THE HEBREW …, priority 2020, published 2023)
